# Measurements as given in patent US11896593B2, “Sulfamate derivative compounds for use in treating or alleviating a psychiatric disorder” (Bio-Pharm Solutions Co., Ltd., priority 2020, dated 2024).
# Marks after values point to notes of the source that are not given here.
# Assays:
# ICR male mice [1] = test: Open field test; type: in vivo; settings: 60 minutes before testing
# Procedure: This test is based on anxiety behaviors of rodents in the central area of an open field. When a mouse stayed in the central area for a longer period of time, it was deemed that there were more anti-stress, anti-depressant and anti-anxiety effects. ICR male mice (30 g to 35 g) were purchased from Orient Bio Korea Co. (Korea) and allowed to acclimatize for 1 week before being tested in a controlled animal facility (temperature 22±2° C., humidity 55±5%). When treatment began, the weight of the animals was 35±5% g. The test compound for oral administration was dissolved in 30% PEG400 and administered at a dose per body weight of 10 mL/kg 60 minutes before testing. The test compound for intraperitoneal administration was dissolved in 20% Tween80 and administered at a dose per body weight of 10 mL/kg 60 minutes before testing. The control group was provided with a corresponding vehicle. The open field was measured and analyzed by OPTO-VARIMEX instrument (Columbus Instruments, USA). The mouse was placed in the center of the open field, and its behavior was measured for 10 minutes. The open field was divided into 16 equal parts, and the middle area was established as the central area. Locomotor activity was measured using a spontaneous momentum (distance moved in cm), and measurement of anxiety behavior was obtained using the time spent in the central area as an index. In the open field experiment, when the time during which the mouse stayed in the central area was longer, it was evaluated that the symptoms of anxiety were alleviated, and when the time was shorter, the mouse was evaluated to have symptoms of anxiety (Reference; Prut L, Belzung C. 2003. The open field as a paradigm to measure the effects of drugs on anxiety-like behaviors: a review. Eur J Pharmacol. February 28; 463(1-3):3-33.).
# ICR male mice [2] = test: Forced swim test (mouse, mFST); type: in vivo; settings: for Immobile posture time (sec.)/4 minutes, Treatment: mouse, administered orally 60 minutes before testing
# Procedure: In order to determine the anti-depressant effect in rodents, the forced swim test was performed with rats and mice. The forced swim test causes an immobile state by forcing an animal to swim in a confined space. It reflects a state of despair giving up evading such a circumstance. ICR male mice (25 g to 30 g) and Wistar male rats (240 g to 260 g) were purchased from Samtako Bio Korea Co. (Korea) and allowed to acclimatize for 1 week before being tested in a controlled animal facility (temperature 22±2° C., humidity 55±5%). The test compound was dissolved in 20% Tween80 and administered orally 60 minutes before testing. The control group was provided with a corresponding vehicle. […] 15 minutes of forced swimming was performed a day before the experiment. On the day of the experiment, the animal was placed in the cylinder 60 minutes after the administration of the compound and was videotaped for 6 minutes. In the recorded videos, time during which the animal placed its head on the water and remained still without movement was measured based on the remaining 4 minutes excluding the first 2 minutes. It was evaluated that the lower the value of the immobile posture time, the greater the anti-depressant action (Reference; Porsolt R D, Le Pichon M. Jalfre M. 1997. Depression: a new animal model sensitive to antidepressant treatments. Nature. April 21; 266(5604):730-2.).
# The result was shown as the standard error of measurement (SEM) of mean value t mean value. Behavioral data were analyzed by one-way ANOVA. For statistical significance, a value of <0.05 was taken (***p<0.001, **p=0.001˜0.01, *p=0.01˜0.05). Data management and statistics were performed using the Prism software of Windows version 4 (GraphPad Softward Co., San Diego, CA, USA).
# Based on the results of Table 7, the ED50 value of the compound of Example 2 was calculated and shown in Table 7, and after 30 mg/kg and 60 mg/kg of the compounds of the other remaining examples were administered based on TD50 values to perform the forced swim tests, respectively, the administration doses with protected efficacy and protection % at the corresponding administration doses were shown in Table 7.
smiles,measurement,setting,value
"CC1(C)O[C@@H](COS(N)(=O)=O)[C@H](c2ccccc2Cl)O1 [Example 2, ((4S,5S)-5-(2-chlorophenyl)-2,2-dimethyl-1,3-dioxolan-4-yl)methyl sulfamate]","Spontaneous momentum(cm)/10 minutes, Treatment","ICR male mice [1]; intraperitoneal, 10 mg/kg",5038.2 ± 455.9 cm/10 minutes
same,"Time of staying in central area (sec.)/10 minutes, Treatment","ICR male mice [1]; intraperitoneal, 10 mg/kg",31.6 ± 2.7 sec./10 minutes
same,"Spontaneous momentum(cm)/10 minutes, Treatment","ICR male mice [1]; intraperitoneal, 30 mg/kg",4249.4 ± 402.4 cm/10 minutes
same,"Time of staying in central area (sec.)/10 minutes, Treatment","ICR male mice [1]; intraperitoneal, 30 mg/kg",35.6 ± 3.1 sec./10 minutes
same,"Spontaneous momentum(cm)/10 minutes, Treatment","ICR male mice [1]; oral, 10 mg/kg",4997.3 ± 491.6 cm/10 minutes
same,"Time of staying in central area (sec.)/10 minutes, Treatment","ICR male mice [1]; oral, 10 mg/kg",36.6 ± 4.6 sec./10 minutes
same,"Spontaneous momentum(cm)/10 minutes, Treatment","ICR male mice [1]; oral, 30 mg/kg",5033.5 ± 233.8 cm/10 minutes
same,"Time of staying in central area (sec.)/10 minutes, Treatment","ICR male mice [1]; oral, 30 mg/kg",44.7 ± 3.5 sec./10 minutes
same,ED50,"ICR male mice [2]; mouse forced swim test, po",23.5 mg/kg
same,"Immobile posture time (sec.)/4 minutes, Treatment",ICR male mice [2]; 10 mg/kg,105.7 ± 6.9** sec./4 minutes
same,"Immobile posture time (sec.)/4 minutes, Treatment",ICR male mice [2]; 20 mg/kg,80.5 ± 8.6** sec./4 minutes
same,"Immobile posture time (sec.)/4 minutes, Treatment",ICR male mice [2]; 40 mg/kg,61.2 ± 20.1** sec./4 minutes
